Measured values published in patent US9682125B2, “Compositions and methods for treating cognitive deficits” (Case Western Reserve University, priority 2011, dated 2017).
No end group written: not given here.

Experiments:
SAMP8 mice [1] = experiment: Morris water maze (learning, probe and retention trials); format: in vivo; details: chronic amylin; for MWM maze learning: acute leptin at time of testing, FIGS. 10 and 11
From the text: In this Example, we examined whether chronic amylin administration has beneficial effects on cognition using senescence-accelerated SAMP8 mice, a validated animal model of mild cognitive impairment (MCI)/early Alzheimer's disease (AD) in which the mice experience premature cognitive deficits. Given that the anorectic effects of amylin are specifically synergistic with another metabolic hormone, leptin, we also studied whether amylin's effects on cognition might be enhanced when used in conjunction with leptin.
(§1) To validate the hypothesis that amylin is a cognitive enhancing drug that can be given alone and that may provide benefit for cognitive dysfunction associated diseases such as AD or age-related cognitive dysfunction (normal or Mild cognitive impairment (MCI)), we determined the ability of chronic treatment with amylin to improve cognitive function in the Morris water maze and object recognition tasks in the age accelerated SAMP8 mouse model, a model of MCI/early AD. […] Furthermore, improvement of amylin treatment in the retention trial, carried out 24 hrs reflects the ability of amylin to improve consolidation to long-term, permanent memory. (FIG. 9).
(§2) We were able to test this hypothesis under chronic amylin treatment and acute delivery of leptin at time of testing in SAMP8 mice. […] The slope of curve for the SAMP8 mice treated with a combination of amylin and leptin was the steepest […]. […] Novel object recognition testing, another cognition-based test, supported our findings in the MWM. […] It is important to note that these studies were carried out in cognitively impaired animals with leptin treatments under acute conditions. As such, it is likely that the lack of observable synergistic additive magnitude derives from insufficient length of leptin treatment.

synapsin I = experiment: Western blotting of hippocampal synapsin I; format: in vivo; details: SAMP8 mice treated five weeks, vs saline
Experimental: (§3) All SAMP8 mice were sacrificed by lethal overdose 5 weeks after the initiation of the pramlintide and saline treatments. The brains were harvested and the hippocampus was dissected and homogenized in protease and phosphatase inhibitor-supplemented 1×RIPA lysis/extraction buffer (Pierce). Total protein was quantified using the BCA Protein Assay Kit (Pierce). 10-20 μg of protein was run in a 10% SDS-PAGE gel and the protein was transferred onto Polyvinylidene fluoride (PVDF) membranes (Millipore). After blocking for one hour in 5% milk, the membranes were incubated overnight at 4° C. in the primary antibody at a 1:1000 dilution, followed by a 1-hour incubation with HRP-conjugated IgG at a 1:10,000 dilution. Primary antibodies used were CDK5 (Millipore), P35/P25 (Millipore), Synapsin I (Santa Cruz), and HO-1 (Gift from Dr. Zhu). The blots were developed using Immobilon Western Chemiluminescent HRP Substrate (Millipore) and imaged using FluorChem M (ProteinSimple). Membranes were stripped using Restore Western Blot Stripping Buffer (Thermo Scientific) for reprobing. Quantifications were performed using ImageJ software.

4-Hydroxynonenal (HNE) = experiment: Cellular stress immunohistochemistry, HNE; format: in vivo, SAMR1 mice; details: mice treated for 2 weeks, compared to saline-treated mice
Experimental: (§4) To determine the acute effects of pramilide on potential mechanisms associated with cognitive function a total of 12 control mice (SAMR1) 9 months of age were used to measure the effects of pramlintide on hippocampal neurogenesis. Half of the mice (n=6) were infused by minipump with pramlintide for a total of two weeks, while the other half (n=6) received minipumps filled with saline. For the last seven days of the experiment, all mice received daily intraperitoneal injections of 50 mg/kg BRDU (Sigma, St Louis, […].) dissolved in 0.9% saline and filtered at […]. One day after the last BRDU injection, mice were deeply anesthetized and transcranially perfused using 4% paraformaldehyde in 0.9% saline. The brains were then extracted and post-fixed in 4% paraformaldehyde for 24 hours, after which they were placed in a 30% sucrose solution for three days. All brains were quick-frozen and then cut into 40 μm sagital sections using a cryostatand stored at 4° C. as floating sections.
(§5) To determine whether pramilide had more acute neuroprotective effects in non-pathological conditions, sections from the same mice used for neurogenesis were used to determine markers of cellular stress. […]
(§6) Tissue sections were quantified. […] Six fields across the hippocampus were drawn and % staining within that field was measured using Metamorph software. […]

cyclooxygenase 2 (COX-2) = experiment: Cellular stress immunohistochemistry, COX-2; format: in vivo, SAMR1 mice; details: mice treated for 2 weeks, compared to saline-treated mice
Experimental: as §4, §5, §6

p35, p25 = experiment: Western blotting of hippocampal p35/p25; format: in vivo; details: hippocampus, SAMP8 mice, five weeks, vs saline
Experimental: as §3

CDK5 = experiment: Western blotting of hippocampal CDK5; format: in vivo; details: SAMP8 mice treated five weeks, relative to saline-treated group
Experimental: as §3

[2] = system: BrdU-positive cells in the dentate gyrus; experiment: BrdU immunostaining, hippocampal neurogenesis; format: in vivo; details: 9-month SAMR1 mice, two weeks minipump, compared to saline-treated mice
Experimental: as §4
BRDU immunohistochemistry was performed as previously described. […]
A validated sterology protocol was used to quantify BrdU-labeled cells in the dentate gyrus. […] All BrdU-positive cells in the dentate gyrus of the hippocampus were counted in every 6th section through the hippocampus, for a total of 12 sections per animal. […]

HO-1 = experiment: Western blotting of hippocampal HO-1; format: in vivo; details: SAMP8 mice, 5 weeks, compared to saline-treated mice
Experimental: as §3

[3] = Body weight change during 5-week pramlintide minipump infusion; format: in vivo; details: over 5-week treatment period, 0.24 mg/kg/day s.c. minipump, SAMP8 mice
Experimental: SAMP8 and SAM-resistant 1 (SAMR1) mice were obtained from an established colony at Case Western Reserve University. All animals were group housed, provided ad libitum access to a standard diet and water, and were exposed to a 12/12 light/dark daily cycle. The mice were housed under pathogen-free conditions at a temperature of 21±1.5° C.
(§7) All SAMP8 mice were treated with either saline or pramlintide beginning at 6 months of age. A subcutaneous ALZET® osmotic minipump (Model 2002, Durect Corp., Cupertino, Calif., USA) was surgically implanted into all mice as described previously^26. The osmotic mini-pump infused 0.24 mg/kg/day pramlintide acetate (0.6 mg/mL pramlintide, Amylin Pharmaceuticals, Inc., San Diego, Calif.) or saline at a rate of 0.5 μL/hr. Pumps were replaced with new refilled pumps every two weeks throughout the study duration. All animals were weighed weekly throughout the course of the experiment.
To investigate the effects of pramlintide on memory, SAMP8 mice were continually infused with saline or pramlintide for a total of five weeks. Consistent with pramlintide's known anorexic effect, the pramlintide-treated mice experienced a change in body weight of −5.8% (Std=4.7) over the course of the treatment period as compared to a weight change of −0.1% (6.1) for the saline-treated mice. […]

SAMP8 mice [4] = experiment: Object recognition task; format: in vivo; details: 7-month SAMP8 mice
Experimental: as §7
A total of 20 SAMP8 mice were used in the object recognition task. […] The mice were allowed to explore the environment for 10 minutes, during which their movements were recorded with a tracking system. […]
Videos recordings of the retention session were scored by an investigator blinded to the treatment groups. Object exploration, defined as the duration of time in which the head of the mouse faced less than ½ cm from the object, was measured during the training and retention sessions. The frequency of object exploration was also recorded, as well as the frequency and time spent rearing and grooming to determine general exploratory behavior. […] The recognition index was calculated as the percent of time spent exploring the novel object versus the total time spent exploring the objects.

SAMP8 mice [5] = experiment: Novel object recognition testing; format: in vivo; details: chronic amylin, leptin delivered acutely, vs saline, FIG. 13
From the text: as §1, §2

What does the source list for “amylin: 37-amino acid polypeptide hormone normally co-secreted with insulin by pancreatic beta cells (KCNTATCATQRLANFLVHSSNNFGAILSSTNVGSNTY; not fully specified (C-terminus, bridges); cysteine pairing not given here; UniProt P10997 34-70, looked up)”?
learning of the MWM task (SAMP8 mice [1]; SAMP8 (P8) vs non-treated P8, FIG. 8): potent effect on learning; MWM probe trial (SAMP8 mice [1]; SAMP8 vs non-treated P8, FIG. 9): perform better than non-treated P8; MWM maze learning (SAMP8 mice [1]; SAMP8 mice): improved; MWM retention trial (SAMP8 mice [1]; retention carried out 24 hrs, FIG. 9): improvement

Which results are given for CC[C@H](C)[C@H](NC(=O)[C@@H]1CCCN1C(=O)CNC(=O)[C@H](Cc1ccccc1)NC(=O)[C@H](CC(N)=O)NC(=O)[C@H](CC(N)=O)NC(=O)[C@H](CO)NC(=O)[C@H](CO)NC(=O)[C@H](Cc1c[nH]cn1)NC(=O)[C@@H](NC(=O)[C@H](CC(C)C)NC(=O)[C@H](Cc1ccccc1)NC(=O)[C@H](CC(N)=O)NC(=O)[C@H](C)NC(=O)[C@H](CC(C)C)NC(=O)[C@H](CCCNC(=N)N)NC(=O)[C@H](CCC(N)=O)NC(=O)[C@@H](NC(=O)[C@H](C)NC(=O)[C@@H]1CSSC[C@H](NC(=O)[C@@H](N)CCCCN)C(=O)N[C@@H](CC(N)=O)C(=O)N[C@@H]([C@@H](C)O)C(=O)N[C@@H](C)C(=O)N[C@@H]([C@@H](C)O)C(=O)N1)[C@@H](C)O)C(C)C)C(=O)N[C@@H](CC(C)C)C(=O)N1CCC[C@H]1C(=O)N1CCC[C@H]1C(=O)N[C@H](C(=O)N[C@@H](CC(N)=O)C(=O)N[C@H](C(=O)NCC(=O)N[C@@H](CO)C(=O)N[C@@H](CC(N)=O)C(=O)N[C@H](C(=O)N[C@@H](Cc1ccc(O)cc1)C(N)=O)[C@@H](C)O)C(C)C)[C@@H](C)O [pramlintide]?
hippocampal expression of synapsin I (synapsin I): significantly increase; HNE immunostaining in the hippocampus (4-Hydroxynonenal (HNE)): trend toward decreased; COX-2 immunostaining in the hippocampus (cyclooxygenase 2 (COX-2)): significant decreases; amount of cleavage product p25 (p35, p25): no differences; amount of the CDK5 activator p35 (p35, p25): no differences; ratio of p25/p35 (p35, p25): no differences; hippocampal expression of the protein CDK5 (CDK5): significantly increased; more BrdU-positive cells in the dentate gyrus [2]: 40%; expression of the protein HO-1 in the hippocampus (HO-1): significantly decreased; change in body weight [3]: −5.8%; recognition index (SAMP8 mice [4]; 5 weeks infusion, retention test 3 hours after training, vs saline): 0.67 (Std=0.06); difference score (recognition memory) (SAMP8 mice [4]; chronic treatment, vs saline-treated controls): significantly increased

B1: leptin: metabolic hormone, delivered acutely at time of testing (protein, UniProt P41160 22-167, looked up)
Leptin: VPIQKVQDDTKTLIKTIVTRINDISHTQSVSAKQRVTGLDFIPGLHPILSLSKMDQTLAVYQQVLTSLPSQNVLQIANDLENLRDLLHLLAFSKSCSLPQTSGLQKPESLDGVLEASLYSTEVVALSRLQGSLQDILQQLDVSPEC
Which “novel object recognition, discrimination ratio” value (SAMP8 mice [5]) does the source give for B1 here?
Its value is “no benefits”.

And the MWM maze learning (SAMP8 mice [1]; SAMP8 mice)?
The MWM maze learning was “improved”.

And the MWM probe/retention trials (SAMP8 mice [1]; acute leptin, SAMP8 mice, compared to saline, FIG. 12)?
Its MWM probe/retention trials is “no benefits”.
